Data set [1] deals with DU145 human prostate cancer cell line. Description: XTT proliferation (cytotoxicity) assay, DU145. Format: cell-based. How it is done:
(§1) The CL1 human prostate carcinoma (PC) cell line is an androgen-independent (AI) subclone of LNCaP cell line, which was generated by culturing androgen-dependent (AD) LNCaP cells in charcoal-stripped, […], as described (Patel et al. 2000). 22RV1 human PC cells are AI sub-clones of the AD prostatic adenocarcinoma CWR22 xenograft (Sramkoski et al. 1999). CL1 and 22RV1 (ATCC, USA) were grown in RPMI-1640 supplemented with 10% FCS (Biological Industries, Beit Haemek, Israel). PC3 and DU145 are androgen-insensitive (AI) (non-responsive), invasive human prostate cancer cell lines. NIH-3T3 mouse fibroblast cell lines (ATCC, USA) were grown in DMEM supplemented with 10% BS. Murine Lewis lung carcinoma (LLC) cell lines were also grown in DMEM medium supplemented with 10% fetal calf serum and antibiotics under the same conditions as above.
(§2) The anticancer activity of the diastereomers 1, 5 and 11-16, 36-39, 42 and 44 was examined against human CL1 prostate cancer, murine LLC (Lewis lung carcinoma), DU 145 and PC3 cell lines. The cell selectivity of the diastereomeric peptides was also studied by examining their effect on NIH-3T3 normal mouse fibroblasts cell line.
(§3) A 96-well plate (Falcon) was used for the XTT proliferation assay. Cancer cells were grown for 24 hours (day 1) in RPMI-1640 medium ([…] cells/100 μl for LLC, CL1, 22RVI, DU 145 and PC3, respectively) supplemented with 10% fetal calf serum and antibiotics, at 37° C., in humidified atmosphere at 5% CO2 and 95% air, resulting in growth medium pH of 7.4. NIH-3T3 fibroblast cells (1×10^4 cells/100 μl) were grown in DMEM medium supplemented with 10% bovine calf serum and antibiotics under the same conditions as described above for the cancerous cells. Wells in the last two rows served as blanks (medium only, for measuring the background color of the medium) and 100% survival controls (cells and medium only without treatment), respectively.
(§4) In day 2, the peptides were dissolved in sterile PBS to a concentration of 200 μM (or 500 μM). The medium in the assay wells was replaced with 100 μl serum free medium. For the assays at pH 6, the medium was initially concentrated (×5 or ×10) and then diluted with double distilled water and addition of sodium carbonate. Before reaching the correct dilution, the medium was adjusted to pH 6 and then more water was added to reach the final dilution. The cells were grown in physiological pH, and the acidic pH was used only during the 24 hours incubation with the peptides. A sign for the correct acidity was a light yellow color of the medium. In line A of the plate, 160 μl of serum free medium was added, if the initial peptide concentration was 500 μM.
(§5) Peptide solutions, 100 μl (or 40 μl) were added to each assay well in line A, such that the final concentration of the peptide was […] and the volume 200 μl. The medium in the wells was mixed with multichannel pipette 5 times and 100 μl of it were transferred to the next row of wells (line B), to give a peptide concentration of 50 μM. The double dilution of the peptides continued downstream the plate in the same manner. The plates were then incubated for 24 h.
(§6) In day 3, XTT reaction solution was prepared by adding to 100 μl aliquots of activation solution (sodium 3′-[1-(phenyl-aminocarbonyl)-3,4-tetrazolium]-bis(4-methoxy-6-nitro) benzene sulfonic acid hydrate and N-methyl dibenzopyrazine methyl sulfate; mixed in a proportion of 50:1) (protected from light and kept in −20° C.), the substrate. 50 μl of XTT reaction solution were added to each well and the plates were incubated for 2 hours (37° C. and 5% CO2+95% air. In cases the incubation was not enough for the creation of the color, it was extended for up to 24 hours). The optical density was read at wavelength of 450 nm in an ELISA plate reader. Cell viability was determined relative to the control and final results were recorded. The results were confirmed using replications in at least three independent experiments. […]

A short description of data set [2]: XTT proliferation (cytotoxicity) assay, normal fibroblasts. Format: cell-based, mouse. Particulars: mouse, NIH-3T3 normal mouse fibroblasts, read-out: Lethal Concentration (LC50). How it is done:
as §1, §2, §3, §4, §5, §6

The subject of data set [3] is MDA-MB-231 breast tumor metastases in lymph nodes and lungs. The data set can be described thus: Inhibition of formation of lung and lymph node metastases derived from breast cancer. Format: in vivo, SCID/NCr mice. From the text:
Monitoring of solid metastases derived for breast tumor was done by in vivo fluorescence using IVIS as described above in (iii). At the end of the treatment (day 38), the mice were killed, and the lungs and lymph nodes were removed and monitored for fluorescence of metastases derived from the breast cancer. For metastases quantification, the lungs and right lymph nodes were excised and fixed in 4% buffered formaldehyde. Paraffin-embedded 5-μm sections were stained with H&E. The percentage of metastatic cell area of total section area was calculated using the Image-Pro plus 4.1 software. The dissected lungs and lymph nodes were analyzed by histology. […] Metastasis quantification was done according to areas from three different sections of each organ (P<0.005).

Data set [4] concerns AI CL1 human PC cells xenograft. The data set can be described thus: Inhibition of tumor growth in human prostate cancer xenografts, CL1. Format: in vivo, nude male mice. How it is done:
(i) Inhibition of tumor growth in human prostate cancer xenografts. Subcutaneouse (s.c.) implantation of human PC cells in mice was done as previously described in Gavish et al. (Gavish et al. 2002). Briefly, 0.1 ml AI CL1 or 22RV1 human PC cells (5×10^6 cells) in Matrigel were inoculated s.c. into the dorsal side of five to six week-old nude male mice weighing 20-25 g (Harlen Co., Israel). Two weeks after cell implantation, when the tumors diameter reached ≧5 mm (denoted as day 1), the diastereomer 13 and its all L-amino acid analog peptide (at 1 mg/kg, 0.1 mM), or vehicle (PBS, pH=7.4) were injected intratumorally (dosing volume of 2.5 ml/kg) three times a week for a total of 9 doses. Tumor size was measured by a caliper and recorded twice a week during a period of 28 days. Mice were weighed and tumor weight (mg) was estimated by using the formula of length×width×depth×0.52 in mm^3, assuming the specific gravity to be 1. At the end of the treatment, the mice were killed, and the tumors were removed, photographed, and weighed. The animal experimentation was conducted according to the rules of the Institutional Animal Care and Use Committee.

A short description of data set [5]: Interaction with Matrigel matrix, analysed by RP-HPLC and mass spectroscopy. It counts as in vitro ADME. The note with it: mixed with Matrigel matrix for one hour.

The structures appear in SMILES notation. In brackets after ≈: the same amount, converted by molar mass. Read-outs that look alike come from different tables or passages of the source. Square brackets hold non-standard residues; d marks the D form. Peptide text beside a SMILES is read from it.

As to `CC(C)C[C@H](NC(=O)[C@H](CC(C)C)NC(=O)[C@@H](CCCCN)NC(=O)[C@H](CC(C)C)NC(=O)[C@H](CC(C)C)NC(=O)[C@H](Cc1c[nH]cn1)NC(=O)[C@@H](CCCCN)NC(=O)[C@@H](CC(C)C)NC(=O)[C@H](CC(C)C)NC(=O)[C@@H](CCCCN)NC(=O)[C@H](Cc1c[nH]cn1)NC(=O)[C@H](CC(C)C)NC(=O)[C@@H](CC(C)C)NC(=O)[C@H](CCCCN)NC(=O)[C@@H](N)CC(C)C)C(N)=O` [Peptide 13] (H-LK[dL]LH[dK]L[dL][dK]HLL[dK]LL-NH2), the “Lethal Concentration (LC50)” value in data set [1] (DU145, pH 6, 24 h) was 18.7 µg/mL; in data set [1] (DU145, pH 7.4, 24 h) it was 25 µg/mL. In addition, the CC50 at 24 h in data set [2] (NIH3T3, pH 6, 24 h) was 19 µg/mL (≈ 10.4 µM); in data set [2] (NIH3T3, pH 7.4, 24 h), 50 µg/mL (≈ 27.4 µM). In addition, the “lymph node metastasis fluorescence intensity” value in data set [3] (systemic administration) is “significant reduction”. Moreover, in data set [3] (vs control untreated mice, P<0.005), the “histology of lungs and lymph nodes: population by cancer cells” value is recorded as “much less densely populated”. Moreover, in data set [4] (CL1 xenograft, 1 mg/kg intratumorally, 9 doses), the tumor weight result is on record as “significant reduction”. The “body weight of the animals compared with vehicle-treated control group” value in data set [4] (prostate cancer xenografts (CL1, 22RV1)) is listed as “increase”. Further, the “activity preserved upon interaction with the Matrigel matrix” value in data set [5] is ~50%.

The record behind these values is patent US20090305954A1, “HISTIDINE-CONTAINING DIASTEREOMERIC PEPTIDES AND USES THEREOF” (Yeda Research and Development Co. Ltd., priority 2005, published 2009).
